Entries after “also recorded” stand apart in the source; their conditions may differ.
Columns and labels:
endogenous TMEM16A = assay: Iodide quenching of YFP in HT29 cells stimulated with ionomycin; assay type: cell-based
Procedure: FIG. 15: Inhibition of TMEM16A and TMEM16F by niclosamide. • A) TMEM16A whole cell currents in overexpressing HEK293 cells. […] Rate of YFP quenching (arbitrary units (au/second), when applying 20 mM iodide to the extracellular bath solution. HT29 cells stably overexpressing YFP were stimulated with […] ionomycin. 100,000 cells were seeded/well. Mean±SEM; (number of experiments) #significant inhibition when compared to the absence of the inhibitor (p<0.05; unpaired t-test); *significant activation by UTP (paired t-test).
Similar to TMEM16A, also overexpressed TMEM16F was inhibited by niclosamide (FIG. 15D). The effect of niclosamide was also examined on endogenous TMEM16A expressed in HT29 colonic carcinoma cells, which were stably transfected with iodide-sensitive yellow fluorescent protein (YFP). TMEM16A was activated by ionomycin and TMEM16A currents were measured as iodide quenching.

TMEM16A or TMEM16F = assay: Expression of TMEM16A / TMEM16F after niclosamide; assay type: cell-based
excised wt colon = assay: Acute mucus secretion in in vitro perfused excised colon, niclosamide in perfusate; parameters: species or system mouse; conditions: niclosamide 10 μM in perfusate
Excerpt: Cholinergic stimulation released mucus from freshly isolated TMEM16A+/+ and TMEM16A−/− intestine (FIG. 6D-F). Mucus release was examined in more detail by perfusing freshly excised colon and collecting released mucus in vitro. For in vitro perfusion of intestines, mice were sacrificed and excised intestines were placed immediately in ice-cold Ringer solution and carefully flushed to remove residual luminal contents. The intestinal segments were mounted and perfused vertically in a custom-designed perfusion chamber with a constant temperature.
It was examined whether TMEM16F is also important for intestinal mucus secretion and acute mucus release was measured in freshly excised colonic segments mounted in a vertical custom-designed perfusion chamber at 37° C. and 24 mmol/1 HCO3^−/5% CO2. Secretion of mucus was induced by basolateral perfusion with methacholine (MCh) and by luminal perfusion of ATP. […]
It was examined whether niclosamide inhibits intestinal mucus secretion. […] The present inventors detected reduced Ca^2+ increase upon ATP-stimulation of freshly isolated crypt cells from Vil1-Cre TMEM16F^flox/flox mice. […] Increase in FM4-64 fluorescence in the plasma membrane is a marker for membrane exocytosis. The present inventors detected that ATP-stimulation (but not cholinergic stimulation) of HEK293 cells expressing TMEM16F induced FM4-64 fluorescence, i.e. exocytosis.

TMEM16A [1] = biological target: T1, TMEM16A (Homo sapiens, UniProt Q5XXA6); assay: Whole cell currents in HEK293 cells expressing TMEM16A (patch clamp); assay type: cell-based; parameters: expressed in transfected cells; host or cells: HEK293 cells; conditions: overexpressing HEK293 cells; UTP 100 μM
T1 sequence (Q5XXA6 1-986): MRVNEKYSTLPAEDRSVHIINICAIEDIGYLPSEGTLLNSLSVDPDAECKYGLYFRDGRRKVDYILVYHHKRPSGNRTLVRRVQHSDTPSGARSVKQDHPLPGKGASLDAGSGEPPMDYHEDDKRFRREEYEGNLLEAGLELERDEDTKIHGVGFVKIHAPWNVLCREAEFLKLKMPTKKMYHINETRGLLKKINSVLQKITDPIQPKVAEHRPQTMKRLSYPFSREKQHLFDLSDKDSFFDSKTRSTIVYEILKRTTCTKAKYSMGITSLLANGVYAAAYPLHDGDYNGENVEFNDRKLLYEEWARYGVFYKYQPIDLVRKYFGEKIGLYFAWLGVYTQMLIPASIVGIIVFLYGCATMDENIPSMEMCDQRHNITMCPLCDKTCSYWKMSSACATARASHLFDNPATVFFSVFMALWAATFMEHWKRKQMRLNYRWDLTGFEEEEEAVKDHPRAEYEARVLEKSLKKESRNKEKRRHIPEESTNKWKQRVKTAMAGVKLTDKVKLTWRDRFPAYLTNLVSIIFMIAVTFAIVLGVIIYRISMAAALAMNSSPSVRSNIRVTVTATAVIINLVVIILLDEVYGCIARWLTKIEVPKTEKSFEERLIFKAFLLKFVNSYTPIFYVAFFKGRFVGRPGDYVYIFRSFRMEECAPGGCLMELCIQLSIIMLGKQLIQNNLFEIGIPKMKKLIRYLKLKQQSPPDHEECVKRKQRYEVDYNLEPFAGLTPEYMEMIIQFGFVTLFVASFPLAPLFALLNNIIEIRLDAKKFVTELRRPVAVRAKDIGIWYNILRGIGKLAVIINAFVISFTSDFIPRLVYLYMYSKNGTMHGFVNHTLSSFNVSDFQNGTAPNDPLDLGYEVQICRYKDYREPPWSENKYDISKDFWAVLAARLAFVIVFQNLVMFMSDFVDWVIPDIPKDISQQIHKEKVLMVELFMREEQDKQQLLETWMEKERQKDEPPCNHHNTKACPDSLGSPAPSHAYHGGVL
Procedure: FIG. 14: The TMEM16-inhibitor niflumic acid attenuates inflammatory airway disease. • A,B) OVA-sensitization induced pronounced goblet cell metaplasia as indicated by alcian blue positivity. Exposure to carbachol (CCH, 25 mg/ml, nebulizer) induced release of mucus and airway […]. Bars indicate […]. […] Mean±SEM; *significant inhibition by NFA (paired ttest). # significant difference when compared to OVA (unpaired t-test). (n) number of airways analysed or number of cells examined.
FIG. 15: Inhibition of TMEM16A and TMEM16F by niclosamide. • A) TMEM16A whole cell currents in overexpressing HEK293 cells. […]
OVA-induced allergic airway inflammation in mice caused pronounced airway goblet cell metaplasia. […] The two main TMEM16 paralogs expressed in airway epithelial and smooth muscle cells, TMEM16A and TMEM16F, were expressed in HEK293 cells and the whole cell currents upon activation by the Ca^2+ ionophore ionomycin (Iono) were measured. […]
Similar to TMEM16A, also overexpressed TMEM16F was inhibited by niclosamide (FIG. 15D). […] TMEM16A was activated by ionomycin and TMEM16A currents were measured as iodide quenching.

TMEM16A [2] = biological target: T1, TMEM16A; parameters: expressed in transfected cells; host or cells: HEK293 cells; conditions: Miner et al. [3]; cited from earlier work

In the case of `O=C(Nc1ccc([N+](=O)[O-])cc1Cl)c1cc(Cl)ccc1O` [niclosamide, 5-chloro-N-(2-chloro-4-nitrophenyl)-2-hydroxybenzamide], the “potency compared with CaCCinhAO1 or dichlorophen” value (endogenous TMEM16A; HT29 YFP iodide quenching) is reported as “more potent”, the “inhibition of endogenous TMEM16A (iodide quenching of YFP)” value (endogenous TMEM16A; HT29 cells stably expressing YFP, ionomycin, 20 mM iodide) is reported as “low nanomolar range” and the “expression of either TMEM16A or TMEM16F” value (TMEM16A or TMEM16F) is reported as “did not change”. For the same compound, the “mucus secretion activated by basolateral MCh” value (excised wt colon) was “not”, the “mucus secretion activated by luminal ATP” value (excised wt colon) was “clearly inhibited” and the “TMEM16A outward currents activated by purinergic stimulation” value (TMEM16A [1]) was “inhibitory effect; also recorded: Concentration-dependent inhibition”. For the same compound, the TMEM16A inhibition (TMEM16A [2]) was “inhibitors of TMEM16A”.
